# Measurements reported in PubChem BioAssay (NCI).
#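 Cells were grown in 96-well plates and exposed to each compound for 48 hours at five concentrations; endpoints were interpolated linearly between bracketing concentrations, or set to the highest concentration if not reached. GI50 is the concentration that inhibits growth by half. Definition used: TGI = concentration required for complete inhibition of growth.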
# How the values were obtained:
# Assay in all cases: growth of human tumour cells (NCI), 48 h
# [1] = tested on: LOX IMVI melanoma
# [2] = tested on: MDA-MB-231 breast
# [3] = tested on: HOP-92 NSCLC
# [4] = tested on: OVCAR-4 ovarian
# [5] = tested on: SR leukemia
# [6] = tested on: 786-0 renal
# [7] = tested on: SNB-75 CNS
# [8] = tested on: NCI-H23 lung
# [9] = tested on: SF-539 CNS
# [10] = tested on: PC-3 prostate
# [11] = tested on: SNB-19 CNS
# [12] = tested on: COLO 205 colon
# [13] = tested on: HOP-62 NSCLC
# [14] = tested on: HL-60(TB) leukemia
# [15] = tested on: HCT-116 colon
# [16] = tested on: SK-MEL-5 melanoma
# [17] = tested on: HCT-15 colon
# [18] = tested on: SW-620 colon
# [19] = tested on: EKVX NSCLC
# [20] = tested on: MOLT-4 leukemia
# [21] = tested on: KM12 colon
# [22] = tested on: SK-OV-3 ovarian
# [23] = tested on: SK-MEL-28 melanoma
# [24] = tested on: SN12C renal
# [25] = tested on: MALME-3M melanoma
# [26] = tested on: A549 NSCLC
# [27] = tested on: UACC-257 melanoma
# [28] = tested on: BT-549 breast
# [29] = tested on: M14 melanoma
# [30] = tested on: SF-295 CNS
# [31] = tested on: OVCAR-5 ovarian
# [32] = tested on: OVCAR-3 ovarian
# [33] = tested on: NCI/ADR-RES ovarian
# [34] = tested on: CAKI-1 renal
# [35] = tested on: MCF7 breast
# [36] = tested on: NCI-H460 lung
# [37] = tested on: CCRF-CEM leukemia
# [38] = tested on: A498 renal
# [39] = tested on: IGROV1 ovarian
# [40] = tested on: TK-10 renal
# [41] = tested on: SF-268 CNS
# [42] = tested on: K-562 leukemia
# [43] = tested on: NCI-H226 lung
# [44] = tested on: DU-145 prostate
# [45] = tested on: HT29 colon
# [46] = tested on: UO-31 renal
compound,measurement,setting,value
CNCCCNc1c2cc(OC)ccc2nc2cccc([N+](=O)[O-])c12,GI50,[1],0.0641 µM
same,TGI,[1],0.354 µM
same,GI50,[2],0.0694 µM
same,TGI,[2],0.672 µM
same,GI50,[3],0.0232 µM
same,TGI,[3],0.137 µM
same,GI50,[4],0.0166 µM
same,TGI,[4],0.0528 µM
same,GI50,[5],0.0253 µM
same,GI50,[6],0.0343 µM
same,TGI,[6],0.306 µM
same,GI50,[7],0.0611 µM
same,TGI,[7],0.224 µM
same,GI50,[8],0.0269 µM
same,TGI,[8],0.22 µM
same,GI50,[9],0.132 µM
same,TGI,[9],0.366 µM
same,TGI,[10],0.277 µM
same,GI50,[11],0.123 µM
same,TGI,[11],0.519 µM
same,GI50,[12],0.0418 µM
same,TGI,[12],0.237 µM
same,GI50,[13],0.0284 µM
same,TGI,[13],0.081 µM
same,GI50,[14],0.0162 µM
same,GI50,[15],0.0255 µM
same,TGI,[15],0.15 µM
same,GI50,[16],0.019 µM
same,TGI,[16],0.0375 µM
same,GI50,[17],0.0285 µM
same,GI50,[18],0.0369 µM
same,TGI,[18],0.517 µM
same,GI50,[19],0.274 µM
same,TGI,[19],1.15 µM
same,TGI,[20],0.0482 µM
same,GI50,[21],0.0431 µM
same,TGI,[21],0.251 µM
same,GI50,[22],0.065 µM
same,TGI,[22],0.67 µM
same,GI50,[23],0.15 µM
same,TGI,[23],0.65 µM
same,GI50,[24],0.0864 µM
same,TGI,[24],16.5 µM
same,GI50,[25],0.11 µM
same,TGI,[25],0.315 µM
same,GI50,[26],0.032 µM
same,TGI,[26],0.247 µM
same,GI50,[27],0.173 µM
same,TGI,[27],0.397 µM
same,GI50,[28],0.186 µM
same,TGI,[28],0.406 µM
same,GI50,[29],0.0211 µM
same,TGI,[29],0.0476 µM
same,GI50,[30],0.0407 µM
same,TGI,[30],0.258 µM
same,GI50,[31],0.0246 µM
same,TGI,[31],0.0993 µM
same,GI50,[32],0.234 µM
same,TGI,[32],0.818 µM
same,GI50,[33],0.444 µM
same,TGI,[33],3.47 µM
same,GI50,[34],0.0306 µM
same,TGI,[34],0.128 µM
same,GI50,[35],0.0234 µM
same,TGI,[35],0.101 µM
same,GI50,[36],0.025 µM
same,TGI,[36],0.103 µM
same,GI50,[37],0.0173 µM
same,TGI,[37],0.173 µM
same,GI50,[38],0.0637 µM
same,TGI,[38],0.271 µM
same,GI50,[39],0.0338 µM
same,TGI,[39],0.195 µM
same,TGI,[40],0.378 µM
same,GI50,[41],0.0565 µM
same,TGI,[41],0.376 µM
same,GI50,[42],0.0153 µM
same,TGI,[42],0.0449 µM
same,GI50,[43],0.128 µM
same,TGI,[43],0.385 µM
same,GI50,[44],0.0454 µM
same,TGI,[44],14.8 µM
same,GI50,[45],0.0223 µM
same,TGI,[45],0.0806 µM
same,GI50,[46],0.0855 µM
same,TGI,[46],0.275 µM
